Laboratory results as given in patent US11541056B2, “3-hydroxy-N-(3-(7H-pyrrolo[2,3-d]pyrimidin-4-yl)phenyl)pyrrolidine-1-carboxamide derivatives” (NOVARTIS AG, priority 2018, dated 2023).

How the values were obtained:
Type in all cases: cell-based
BTK-GFP = target: T1, BTK-GFP (Homo sapiens, UniProt Q06187+Q96SW2); assay: BTK-GFP protein abundance flow cytometry assay in HEK293A cells; settings: 24 h; for BTK deg Amax %: % protein remaining at concentration of maximum degradation; for DC50: concentration at which 50% maximal degradation was observed
T1 construct: the BTK open reading frame (ORF) was first shuttled from a pcDNA-DEST40-BTK vector (Invitrogen library ID INV_20090504v1); expressed in transfected cells; host or cells: HEK293A cells (Invitrogen R70507), lentiviral transduction with pLenti6-BTK-GFP-Ires-RFP, blasticidin-selected
T1 sequence (Q06187 whole entry): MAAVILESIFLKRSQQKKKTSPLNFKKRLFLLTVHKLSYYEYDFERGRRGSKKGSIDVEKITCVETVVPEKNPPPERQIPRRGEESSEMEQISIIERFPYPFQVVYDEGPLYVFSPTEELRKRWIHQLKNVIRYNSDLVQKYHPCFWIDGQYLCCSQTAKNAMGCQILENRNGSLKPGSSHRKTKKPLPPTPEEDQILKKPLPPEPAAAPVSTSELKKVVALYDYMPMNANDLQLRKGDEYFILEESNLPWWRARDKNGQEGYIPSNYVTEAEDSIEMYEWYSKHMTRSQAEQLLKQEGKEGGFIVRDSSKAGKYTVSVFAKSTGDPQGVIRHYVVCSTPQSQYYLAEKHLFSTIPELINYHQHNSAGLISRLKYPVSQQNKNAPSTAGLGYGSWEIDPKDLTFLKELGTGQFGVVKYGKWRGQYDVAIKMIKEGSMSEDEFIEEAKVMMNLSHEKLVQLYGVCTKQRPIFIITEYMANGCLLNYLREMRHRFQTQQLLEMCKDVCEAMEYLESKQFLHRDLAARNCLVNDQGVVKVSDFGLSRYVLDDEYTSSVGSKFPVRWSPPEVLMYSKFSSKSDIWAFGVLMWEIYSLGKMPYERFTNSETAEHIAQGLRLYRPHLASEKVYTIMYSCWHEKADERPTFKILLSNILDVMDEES
T1 sequence (Q96SW2 whole entry): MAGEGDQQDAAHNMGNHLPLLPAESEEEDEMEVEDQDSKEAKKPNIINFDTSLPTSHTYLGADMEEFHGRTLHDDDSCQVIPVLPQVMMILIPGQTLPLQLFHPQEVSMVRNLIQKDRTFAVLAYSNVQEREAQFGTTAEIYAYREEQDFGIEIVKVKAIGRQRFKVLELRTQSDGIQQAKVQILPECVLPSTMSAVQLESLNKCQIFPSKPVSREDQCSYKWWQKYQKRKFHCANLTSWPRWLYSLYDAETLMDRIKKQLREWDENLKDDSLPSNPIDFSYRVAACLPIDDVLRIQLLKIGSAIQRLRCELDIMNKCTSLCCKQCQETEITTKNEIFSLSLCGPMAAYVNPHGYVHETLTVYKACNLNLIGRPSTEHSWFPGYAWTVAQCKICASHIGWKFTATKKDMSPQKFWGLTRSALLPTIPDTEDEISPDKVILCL
T1 sequence (Q16531 whole entry partner): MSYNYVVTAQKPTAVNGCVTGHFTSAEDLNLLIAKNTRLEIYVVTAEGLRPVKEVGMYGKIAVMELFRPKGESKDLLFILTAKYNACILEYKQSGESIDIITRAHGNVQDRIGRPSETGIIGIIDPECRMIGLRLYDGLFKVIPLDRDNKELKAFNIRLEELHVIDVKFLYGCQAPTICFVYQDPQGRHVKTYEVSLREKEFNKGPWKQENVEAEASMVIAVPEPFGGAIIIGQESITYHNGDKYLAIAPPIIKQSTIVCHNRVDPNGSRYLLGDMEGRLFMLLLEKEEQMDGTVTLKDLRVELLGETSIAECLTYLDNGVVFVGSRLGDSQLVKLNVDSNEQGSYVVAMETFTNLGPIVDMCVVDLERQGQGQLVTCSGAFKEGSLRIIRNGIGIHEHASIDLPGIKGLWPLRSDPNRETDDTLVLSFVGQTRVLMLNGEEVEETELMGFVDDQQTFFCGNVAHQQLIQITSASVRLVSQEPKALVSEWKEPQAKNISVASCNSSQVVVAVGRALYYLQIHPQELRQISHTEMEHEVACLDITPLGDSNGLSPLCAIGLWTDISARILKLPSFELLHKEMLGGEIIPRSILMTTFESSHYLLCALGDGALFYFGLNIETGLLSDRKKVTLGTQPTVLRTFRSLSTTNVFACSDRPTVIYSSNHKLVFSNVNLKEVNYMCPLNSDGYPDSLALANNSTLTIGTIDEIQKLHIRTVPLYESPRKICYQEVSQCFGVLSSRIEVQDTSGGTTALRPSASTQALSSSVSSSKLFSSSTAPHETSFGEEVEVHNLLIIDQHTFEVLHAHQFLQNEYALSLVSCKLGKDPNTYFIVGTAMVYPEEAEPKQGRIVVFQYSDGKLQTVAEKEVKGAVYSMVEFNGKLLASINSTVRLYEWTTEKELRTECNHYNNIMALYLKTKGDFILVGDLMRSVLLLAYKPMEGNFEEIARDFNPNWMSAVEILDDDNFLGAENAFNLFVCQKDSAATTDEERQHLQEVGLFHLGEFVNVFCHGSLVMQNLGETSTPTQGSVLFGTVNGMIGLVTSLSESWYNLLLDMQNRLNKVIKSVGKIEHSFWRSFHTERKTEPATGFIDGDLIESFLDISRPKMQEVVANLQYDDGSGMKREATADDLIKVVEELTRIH
Description: (§1) Compounds of the invention were tested in the following cellular assays. The terms in Table 1 are defined as follows: DC50 refers to the concentration at which 50% maximal degradation was observed; deg Amax is the extent of degradation and the value refers to the % protein remaining at the concentration at which maximum degradation is seen; Prol GI50 refers to the proliferation data and defines the concentration at which 50% growth inhibition was observed compared to the vehicle treated control at the end of the incubation time. TMD8 cells are BTK dependent and OCI-LY3 cells are BTK independent.
(§2) BTK-GFP and IKZF3-GFP Protein Abundance Flow Cytometry Assay in HEK293A Cells:
(§3) Degradation of BTK or IKZF3 was measured in HEK293A cells (Invitrogen R70507) expressing either BTK-GFP and RFP or IKZF3-GFP and RFP from a stably integrated bicistronic BTK-GFP-iresRFP or IKZF3-GFP-iresRFP construct, respectively. Reduction of the GFP signal measured by flow cytometry served as readout for BTK or IKZF3 degradation after degrader treatment.
(§4) Stable HEK293A-BTK-GFP-iresRFP cells were maintained in complete growth medium (DMEM high Glucose+10% FCS+1% L-Glutamine+1% NEAA+1% NaPyr.) with passaging performed twice per week. On Day 0, HEK293A-BTK-GFP-iresRFP or HEK293A-IKZF3-GFP-iresRFP and HEK293A-iresRFP cells were seeded at 10,000 cells/well in a 96-well microtiter plate in 260 μl complete medium. On Day 1, cells were treated in duplicate with 10-point 1:3 dilution series of compound using the HP D300 Digital Dispenser (Tecan). DMSO concentrations were normalized across the plate to 0.1%. On Day 2, after 24 h of incubation at 37° C., treatment media was discarded, cells rinsed with 100 ul/well PBS and then detached using 40 ul trypsin/well for 5 min. Trypsin was neutralized with 100 ul/well PBS+20% FCS). Flow cytometry was performed on the samples using the BD FACS CANTO II (Becton Dickinson). Cell identification was then performed using forward (FSC) vs. side scatter (SSC) plots. Single cell discrimination is performed using SSC-Width (SSC-W) vs. SSC-Height (SSC-H) plots. Median GFP values for 5,000 single cells are used to determine BTK levels. Median GFP values from HEK293A-iresRFP are used as a background signal and thus defining 0% BTK signal. Median GFP values from DMSO treated HEK293A-BTK-GFP-iresRFP or HEK293A-IKZF3-GFP-iresRFP are used to define 100% BTK signal for subsequent DC50 curves (concentration at 50% BTK degradation). GFP and RFP are read in the channels called FITC and PE, respectively.
(§5) Concentration response curves plotting relative reduction of the GFP signal (measured by flow cytometry) versus 10 compound concentrations (starting concentration 10 μM, 3 fold dilution steps) of the compounds allowed generation of DC50 values.

IKZF3-GFP = target: T2, IKZF3-GFP (Homo sapiens, UniProt Q9UKT9); assay: IKZF3-GFP protein abundance flow cytometry assay in HEK293A cells; settings: 24 h, Table 1
T2 construct: gateway cloning of IKZF3 from a pENTR221-IKZF3(STOP-Leu) construct into the previously described pLenti6-DEST-GFP-Ires-RFP vector; expressed in transfected cells; host or cells: HEK293A cells (Invitrogen R70507), lentiviral transduction with pLenti6-IKZF3-GFP-Ires-RFP, blasticidin-selected
T2 sequence (Q96SW2 whole entry partner): as the sequence (Q96SW2 whole entry) above
T2 sequence (Q16531 whole entry partner): as the sequence (Q16531 whole entry partner) above
T2 sequence (Q9UKT9 whole entry): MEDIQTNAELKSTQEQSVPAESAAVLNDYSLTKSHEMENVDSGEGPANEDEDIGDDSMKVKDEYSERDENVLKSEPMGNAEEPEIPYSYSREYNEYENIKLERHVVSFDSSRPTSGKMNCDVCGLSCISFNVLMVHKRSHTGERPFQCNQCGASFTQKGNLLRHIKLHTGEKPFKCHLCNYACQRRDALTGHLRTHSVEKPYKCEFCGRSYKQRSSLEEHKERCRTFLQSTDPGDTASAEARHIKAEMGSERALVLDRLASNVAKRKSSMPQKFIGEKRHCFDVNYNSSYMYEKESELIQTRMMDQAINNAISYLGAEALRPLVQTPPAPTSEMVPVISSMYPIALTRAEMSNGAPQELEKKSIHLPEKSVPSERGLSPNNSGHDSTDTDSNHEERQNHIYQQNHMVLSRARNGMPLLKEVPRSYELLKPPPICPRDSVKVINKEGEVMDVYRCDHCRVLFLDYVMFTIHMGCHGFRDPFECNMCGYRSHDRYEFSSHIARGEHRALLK
Description: Compounds of the invention were tested in the following cellular assays. […] TMD8 cells are BTK dependent and OCI-LY3 cells are BTK independent.
as §2, §3, §4, §5
Data is shown in Table 2, in which, DC50 refers to the concentration at which 50% maximal degradation was observed; deg Amax is the extent of degradation and the value refers to the % protein remaining at the concentration at which maximum degradation is seen.

TMD8 cells = assay: Resazurin cell viability assay in DLBCL cells (TMD8); settings: Homo sapiens, TMD8, 72 h, TMD8 cells (BTK dependent), 50% growth inhibition, read-out: TMD8 Prol GI50
Description: as §1
(§6) Cell Viability Assay in DLBCL (Diffuse Large B-Cell Lymphoma) Cells:
(§7) The effect of the BTK compounds on cell proliferation was measured by a Resazurin (Sigma, #R7017) based cell viability assay. TMD8 (BTK compound sensitive) and OCI-LY3 (BTK compound insensitive) cells were incubated for 72 h at 37° C. and 5% CO2 with the corresponding compound. Resazurin is a non-toxic, cell-permeable substrate that is virtually non-fluorescent. Upon entering living cells, Resazurin (Sigma, #R7017) is reduced to highly fluorescent Resorufin. The metabolic activity was assessed by measuring the fluorescence signal (ex. 530 nm; em. 600 nm).
(§8) TMD8 and OCI-Ly3 cells were seeded at day 0 in triplicates at a cell density of 1×10^4 cells per 150 μl/well in a 96-well plate (Costar #3904). Additional plates were prepared, in order to assess the basal metabolic activity of both cell lines at the beginning of the experiment. For these reference plates, Resazurin (Sigma, #R7017) was added to a final concentration of 13 μg/ml 3 h post seeding and was incubated for 2 h at 37° C. and 5% CO2. Following incubation, the fluorescent signal intensity of the 96-well plates was measured on a Mithras LB940 multimode plate reader at 530/600 nm (Berthold Technologies, Germany).
(§9) In parallel, 3 h post-seeding, test-plates were treated with compound at various concentrations, or with vehicle (DMSO) alone for 3 days. The compound addition to the plates was performed by using a HP D300 digital dispenser (TECAN, Switzerland). The compounds were tested in triplicate, 8-point serial dilution (1:4), with a start concentration of 10 μM for OCI-LY3 and 1 μM for the TMD8 cells, respectively. To assess the relative proliferation of the cells, Resazurin was added to each well directly to the medium to a final concentration of 13 μg/ml. The plates were incubated for 2 h at 37° C. and 5% CO2 to result in a 72 h endpoint. Following incubation, the fluorescent signal intensity of the 96-well plates were measured on a Mithras LB940 multimode plate reader at 530/600 nm (Berthold Technologies, Germany). The formation of Resorufin dye directly correlates with the number of metabolically active cells. For each triplicate treatment the mean and standard deviation were calculated and analyzed via curve fitting software to determine the respective compound concentration resulting in 50% growth inhibition (GI50) values. For each compound GI50 values were typically determined from at least 2 entirely independent experiments.
TMD8 cells were acquired through a license agreement with Tokyo Medical and Dental University, Japan. Cells are cultivated in MEM Alpha (BioConcept, #1-23F01-I, lot. LB04262P) supplemented with 10% FCS (HyClone, GE #SH30066.03, lot AB217603), 2 mM L-Glutamine (BioConcept, #5-10K50-H, lot. LA03467P), 1% Pen/Strep (BioConcept, #4-01F00-H, lot. LB04235P).

OCI-LY3 cells = assay: Resazurin cell viability assay in DLBCL cells (OCI-LY3); settings: Homo sapiens, OCI-Ly3, 72 h, OCI-LY3 cells (BTK independent), 50% growth inhibition, read-out: OCI-LY3 Prol GI50
Description: as §1, §6, §7, §8, §9
OCI-LY3 cells were acquired through a license agreement with University Health Network, Toronto, Canada. Cells are cultivated in RPMI1640 media (Gibco, #61870-010, lot. 1894759), supplemented with 10% FCS (HyClone, GE #SH30066.03, lot AB217603), 2 mM L-Glutamine (BioConcept, #5-10K50-H, lot. LA03467P), 1 mM Sodium Pyruvate (BioConcept, #5-60F00-H, lot. LB10510P), 10 mM HEPES (Gibco, #15630-056, lot. 1854074), 1% Pen/Strep (BioConcept, #4-01F00-H, lot. LB04235P).

BTK deg Amax % (BTK-GFP)	DC50 (BTK-GFP)	IKZF3 deg Amax % (IKZF3-GFP; % protein remaining at maximum degradation)	DC50 (IKZF3-GFP)	GI50 (OCI-LY3 cells)	Structure (SMILES)	GI50 (TMD8 cells)
7.4%	15.5 nM	99.3%	> 370 nM	4080 nM	COc1ccc(C(=O)N2CCC(CN3CCN(Cc4ccc(-c5cc6c(-c7cc(F)cc(NC(=O)N8C[C@@H](CC(C)C)[C@H](O)C8)c7C)ncnc6[nH]5)cc4)CC3)CC2)cc1N1CCC(=O)NC1=O [Compound 10, (3S,4R)—N-(3-(6-(4-((4-((1-(3-(2,4-Dioxotetrahydropyrimidin-1(2H)-yl)-4-methoxybenzoyl)piperidin-4-yl)methyl)piperazin-1-yl)methyl)phenyl)-7H-pyrrolo[2,3-d]pyrimidin-4-yl)-5-fluoro-2-methylphenyl)-3-hydroxy-4-isobutylpyrrolidine-1-carboxamide]	2.31 nM
4%	5.5 nM			> 10000 nM	COc1ccc(C(=O)N2CCC3(CCN(CCc4ccc(-c5cc6c(-c7ccc(F)c(NC(=O)N8C[C@H](CC(C)C)[C@@H](O)C8)c7C)ncnc6[nH]5)cc4)CC3)CC2)cc1N1CCC(=O)NC1=O [Compound 17, (3R,4S)—N-(3-(6-(4-(2-(9-(3-(2,4-dioxotetrahydropyrimidin-1(2H)-yl)-4-methoxybenzoyl)-3,9-diazaspiro[5.5]undecan-3-yl)ethyl)phenyl)-7H-pyrrolo[2,3-d]pyrimidin-4-yl)-6-fluoro-2-methylphenyl)-3-hydroxy-4-isobutylpyrrolidine-1-carboxamide]	0.49 nM
2.4%	1.1 nM			3700 nM	COc1ccc(C(=O)N2CCC(OCCN3CCC(Oc4ccc(-c5cc6c(-c7cc(F)cc(NC(=O)N8C[C@H](CC(C)C)[C@@H](O)C8)c7C)ncnc6[nH]5)cc4)CC3)CC2)cc1N1CCC(=O)NC1=O [Compound 20, (3R,4S)—N-(3-(6-(4-((1-(2-((1-(3-(2,4-Dioxotetrahydropyrimidin-1(2H)-yl)-4-methoxybenzoyl)piperidin-4-yl)oxy)ethyl)piperidin-4-yl)oxy)phenyl)-7H-pyrrolo[2,3-d]pyrimidin-4-yl)-5-fluoro-2-methylphenyl)-3-hydroxy-4-isobutylpyrrolidine-1-carboxamide]	0.29 nM
4%	15.6 nM			3600 nM	COc1ccc(C(=O)N2CCC(CCN3CCC(OCc4ccc(-c5cc6c(-c7cc(F)cc(NC(=O)N8C[C@@H](CC(C)C)[C@H](O)C8)c7C)ncnc6[nH]5)cc4)CC3)CC2)cc1N1CCC(=O)NC1=O [Compound 21, (3S,4R)—N-(3-(6-(4-(((1-(2-(1-(3-(2,4-Dioxotetrahydropyrimidin-1 (2H)-yl)-4-methoxybenzoyl)piperidin-4-yl)ethyl)piperidin-4-yl)oxy)methyl)phenyl)-7H-pyrrolo[2,3-d]pyrimidin-4-yl)-5-fluoro-2-methylphenyl)-3-hydroxy-4-isobutylpyrrolidine-1-carboxamide]	1.17 nM
